Experimental data: patent US9023398B2, “Method for improving the aqueous solubility of poorly-soluble substances” (Kabushiki Kaisha Sangi, priority 2009, dated 2015)
Counter-ions that a name gives are not always drawn.

Key:
[1] = Experimental: The rotation number of the stirrer was 120 rpm, and all of the tests were conducted in a thermostat at 37±0.5° C. Two types of test solutions, namely, distilled water and 2nd fluid for disintegration test (pH 6.8) of the Japanese Pharmacopoeia were used. As such 2nd fluid for disintegration test of the Japanese Pharmacopoeia, a solution prepared by diluting the 10-fold concentration solution of Kanto Kagaku Co., Ltd. with distilled water was used.
A comparative test was carried out in the same manner as that described above with the exception that a poorly-soluble substance or the like was used in an amount equal to that of a substance with improved aqueous solubility, instead of the substance with improved aqueous solubility.
1 mL of the solution was sampled in an Eppendorf centrifuge tube, 1, 3, 10, 30, 60, 180 and 360 minutes after initiation of the test. The thus sampled solution was centrifuged at 12,000 rpm for 5 minutes. […] In the case of the comparative test, the poorly-soluble substance or the like, which had not been dissolved in the solution, was removed. An aliquot of this supernatant was immediately frozen. The frozen sample was freeze-dried, and it was then used as a sample in the measurement of the amount of the substance with improved aqueous solubility, which had been dissolved in the test solution. The dissolved poorly-soluble substance was measured mainly using a dual wavelength absorption photometer.
Moreover, a comparative test was carried out using silica fume instead of the calcium compound microparticles. Specifically, a coating treatment was carried out according to the same method as that described in the above section “6-1.

[2] = Dissolution test of poorly-soluble substances using distilled water; assay type: physicochemical
[3] = Dissolution test of poorly-soluble substances using 2nd fluid for disintegration test (pH 6.8) of the Japanese Pharmacopoeia; assay type: physicochemical
Description: From initiation of the test, the mixed solution was stirred with a stirrer having a length of 15 mm. The rotation number of the stirrer was 120 rpm, and all of the tests were conducted in a thermostat at 37±0.5° C. Two types of test solutions, namely, distilled water and 2nd fluid for disintegration test (pH 6.8) of the Japanese Pharmacopoeia were used. As such 2nd fluid for disintegration test of the Japanese Pharmacopoeia, a solution prepared by diluting the 10-fold concentration solution of Kanto Kagaku Co., Ltd. with distilled water was used.

[4] = 2nd fluid for disintegration test, elution time 1 min
[5] = 2nd fluid for disintegration test, elution time 3 min
[6] = 2nd fluid for disintegration test, elution time 10 min
[7] = 2nd fluid for disintegration test, elution time 30 min
[8] = 2nd fluid for disintegration test, elution time 60 min
[9] = 2nd fluid for disintegration test, elution time 180 min
[10] = 2nd fluid for disintegration test, elution time 360 min

SMILES: CC(=O)O[C@@]12CO[C@@H]1C[C@H](O)[C@@]1(C)C(=O)[C@H](O)C3=C(C)[C@@H](OC(=O)[C@H](O)[C@@H](NC(=O)OC(C)(C)C)c4ccccc4)C[C@@](O)([C@@H](OC(=O)c4ccccc4)[C@H]21)C3(C)C [docetaxel hydrate]
- solubility-improving effect [1]: a solubility-improving effect was obtained

SMILES: CC(=O)O[C@H]1C(=O)[C@@]2(C)[C@H]([C@H](OC(=O)c3ccccc3)[C@]3(O)C[C@H](OC(=O)[C@H](O)[C@@H](NC(=O)c4ccccc4)c4ccccc4)C(C)=C1C3(C)C)[C@]1(OC(C)=O)CO[C@@H]1C[C@@H]2O [paclitaxel]
- solubility-improving effect [1]: a solubility-improving effect was obtained

SMILES: C[C@]12CC[C@@H]3c4ccc(OC(=O)c5ccccc5)cc4CC[C@H]3[C@@H]1CC[C@@H]2O [estradiol benzoate]
- solubility-improving effect [1]: a solubility-improving effect was obtained

SMILES: C[C@]12CC[C@@H]3c4ccc(O)cc4CC[C@H]3[C@@H]1C[C@@H](O)[C@@H]2O [estriol]
- solubility-improving effect [1]: a solubility-improving effect was obtained

SMILES: Clc1ccc2c(c1)C(N1CCNCC1)=Nc1ccccc1O2 [amoxapine]
- solubility-improving effect [1]: a solubility-improving effect was obtained

SMILES: CN(C)/N=N/c1[nH]cnc1C(N)=O [dacarbazine]
- solubility-improving effect [1]: a solubility-improving effect was obtained

SMILES: CC/C=C\C/C=C\C/C=C\C/C=C\C/C=C\CCCC(=O)OCC [ethyl icosapentate]
- solubility-improving effect [1]: a solubility-improving effect was obtained

SMILES: CN1CCC[C@@H]1CCO[C@](C)(c1ccccc1)c1ccc(Cl)cc1 [clemastine fumarate]
- solubility-improving effect [1]: a solubility-improving effect was obtained

SMILES: C[C@@H]1[C@H](O)[C@@H](C)/C=C/C=C/CC/C=C/C=C/C=C/C=C/C(O[C@H]2O[C@H](C)[C@@H](O)[C@H](N)[C@@H]2O)CC2O[C@](O)(CC(O)C(O)CCC(O)CC(O)CC(O)CC(=O)O[C@H]1C)CC(O)C2C(=O)O (stereo partly shown) [nystatin]
- solubility-improving effect [1]: a solubility-improving effect was obtained

SMILES: CC(C)(O/N=C(\C(=O)N[C@@H]1C(=O)N2C(C(=O)[O-])=C(C[n+]3ccccc3)CS[C@H]12)c1csc(N)n1)C(=O)O [ceftazidime]
- solubility-improving effect [1]: a solubility-improving effect was obtained

SMILES: C=CC[C@@H]1/C=C(\C)C[C@H](C)C[C@H](OC)[C@H]2O[C@@](O)(C(=O)C(=O)N3CCCC[C@H]3C(=O)O[C@H](/C(C)=C/[C@@H]3CC[C@@H](O)[C@H](OC)C3)[C@H](C)[C@@H](O)CC1=O)[C@H](C)C[C@@H]2OC [tacrolimus hydrate]
- solubility-improving effect [1]: a solubility-improving effect was obtained

SMILES: CCCCC(=O)O[C@H]1CC[C@H]2[C@@H]3CCc4cc(O)ccc4[C@H]3CC[C@]12C [estradiol valerate]
- solubility-improving effect [1]: a solubility-improving effect was obtained

SMILES: O=C(Nc1ccc(Cl)cc1)Nc1ccc(Cl)c(Cl)c1 [10-1, Trichlorocarbanilide]
- Dissolved amount ([2]; Dissolution test using water, elution time 1 min): 0.0 µg/mL
- Dissolved amount ([2]; Dissolution test using water, elution time 3 min): 0.1 µg/mL
- Dissolved amount ([2]; Dissolution test using water, elution time 10 min): 0.4 µg/mL
- Dissolved amount ([2]; Dissolution test using water, elution time 30 min): 0.4 µg/mL
- Dissolved amount ([2]; Dissolution test using water, elution time 60 min): 0.4 µg/mL
- Dissolved amount ([2]; Dissolution test using water, elution time 180 min): 0.5 µg/mL
- Dissolved amount ([2]; Dissolution test using water, elution time 360 min): 0.6 µg/mL
- Dissolved amount ([2]; Distilled water, trichlorocarbanilide, elution time not printed in Table 13): 0.6 µg/mL
- Dissolved amount [3, 4]: 0.0 µg/mL
- Dissolved amount [3, 5]: 0.3 µg/mL
- Dissolved amount [3, 6]: 0.6 µg/mL
- Dissolved amount [3, 7]: 0.8 µg/mL
- Dissolved amount [3, 8]: 1.1 µg/mL
- Dissolved amount [3, 9]: 1.3 µg/mL
- Dissolved amount [3, 10]: 1.5 µg/mL
- Dissolved amount ([3]; Second disintegration test medium, trichlorocarbanilide, elution time not printed in Table 13): 1.5 µg/mL
- solubility-improving effect [1]: a solubility-improving effect was obtained

SMILES: CO/N=C(\C(=O)N[C@@H]1C(=O)N2C(C(=O)O)=C(CSc3nnnn3C)CS[C@H]12)c1csc(N)n1 [cefmenoxime hydrochloride]
- solubility-improving effect [1]: a solubility-improving effect was obtained

SMILES: N[C@@H](CSCC(=O)O)C(=O)O [L-carbocysteine]
- solubility-improving effect [1]: a solubility-improving effect was obtained

SMILES: O=C(O)c1cc(/N=N/c2ccc(S(=O)(=O)Nc3ccccn3)cc2)ccc1O [salazosulfapyridine]
- solubility-improving effect [1]: a solubility-improving effect was obtained

SMILES: CCCCCC(=O)O[C@]1(C(C)=O)CC[C@H]2[C@@H]3CCC4=CC(=O)CC[C@]4(C)[C@H]3CC[C@@]21C [hydroxyprogesterone caproate]
- solubility-improving effect [1]: a solubility-improving effect was obtained

SMILES: CCN(CC)CCNC(=O)c1cc(Cl)c(N)cc1OC [compound 33, Metoclopramide]
- Dissolved amount ([2]; Metoclopramide, water, elution time 3 min): 6159.5 µg/mL
- Dissolved amount ([2]; Metoclopramide, water, elution time 10 min): 5382.3 µg/mL
- Dissolved amount ([2]; Metoclopramide, water, elution time 30 min): 5437.6 µg/mL
- Dissolved amount ([2]; Metoclopramide, water, elution time 120 min): 5478.0 µg/mL
- Dissolved amount ([2]; Metoclopramide, water, elution time 360 min): 5654.9 µg/mL
- Dissolved amount ([3]; Metoclopramide, 2nd fluid for disintegration test, elution time 3 min): 12420.8 µg/mL
- Dissolved amount ([3]; Metoclopramide, 2nd fluid for disintegration test, elution time 30 min): 13285.5 µg/mL
- Dissolved amount ([3]; Metoclopramide, 2nd fluid for disintegration test, elution time 360 min): 13564.1 µg/mL

SMILES: C[C@H]1[C@H](NC(=O)/C(=N\OC(C)(C)C(=O)O)c2csc(N)n2)C(=O)N1S(=O)(=O)O [aztreonam]
- solubility-improving effect [1]: a solubility-improving effect was obtained

SMILES: CC1CNc2c(cccc2S(=O)(=O)N[C@@H](CCCNC(=N)N)C(=O)N2CC[C@@H](C)C[C@@H]2C(=O)O)C1 (stereo partly shown) [argatroban]
- solubility-improving effect [1]: a solubility-improving effect was obtained

SMILES: CC(C)Cc1ccc(C(C)C(=O)O)cc1 (stereo not shown) [ibuprofen]
- solubility-improving effect [1]: a solubility-improving effect was obtained

SMILES: Cn1c(=O)c2[nH]cnc2n(C)c1=O [Comparative Example 15, Theophylline]
- Dissolved amount ([2]; water, elution time 1 min): 7082.2 µg/mL
- Dissolved amount ([2]; water, elution time 3 min): 7897.9 µg/mL
- Dissolved amount ([2]; water, elution time 10 min): 8554.7 µg/mL
- Dissolved amount ([2]; water, elution time 30 min): 8621.6 µg/mL
- Dissolved amount ([2]; water, elution time 60 min): 8652.4 µg/mL
- Dissolved amount ([2]; water, elution time 180 min): 8672.3 µg/mL
- Dissolved amount ([2]; water, elution time 360 min): 8691.5 µg/mL
- Dissolved amount [3, 4]: 8133.8 µg/mL
- Dissolved amount [3, 5]: 8635.7 µg/mL
- Dissolved amount [3, 6]: 8596.0 µg/mL
- Dissolved amount [3, 7]: 8929.7 µg/mL
- Dissolved amount [3, 8]: 9096.5 µg/mL
- Dissolved amount [3, 9]: 8906.5 µg/mL
- Dissolved amount [3, 10]: 8906.2 µg/mL
